According to PMC9127739, “Hololectin Interdomain Linker Determines Asparaginyl Endopeptidase-Mediated Maturation of Antifungal Hevein-Like Peptides in Oats” (Frontiers in Plant Science, 2022):
Where a SMILES comes first, the peptide text is derived from it. Bridges are numbered along the chain shown (N, C = ends).

Columns and labels:
[1] = test system: trypsin; assay: Peptide stability assay, trypsin (endopeptidase); type: in vitro ADME; settings: recommended buffer, RP-HPLC, n = 3
Procedure: (§1) Purified avenatides aV1 and S-alkylated aV1 were incubated under the stated conditions and recommended buffer solution. At each time interval, aliquots of samples were taken and RP-UPLC was performed in triplicate.

[2] = test system: carboxypeptidase A; assay: Exoproteolytic enzyme stability assay, carboxypeptidase A; type: in vitro ADME; settings: carboxypeptidase A (isolated exopeptidase); 200 μM peptide, 100 nM carboxypeptidase A, 50 mM Tris-HCl, 100 mM sodium chloride, 37°C, 4 h (time-points 0 and 6 h); quenched with 1 M HCl; RP-UPLC; n = 3; read-out: Peptide retained after carboxypeptidase A treatment
Procedure: as §1
Purified avenatide aV1 (200 μM) were added to 50 mM Tris-HCl, 100 mM sodium chloride with 100 nM carboxypeptidase A or 20 mM tricine and 0.05% bovine serum albumin (pH 8.0) with 20 U/mL aminopeptidase I. The mixture was incubated in a 37°C water bath for 4 h. At each time-point ([…]), 20 μL of the treated sample was aliquoted and quenched with 5 μL 1 M hydrochloric acid. RP-UPLC was performed to determine the amounts of avenatide aV1 present before and after treatment.

[3] = test system: Fusarium oxysporum (CICC 2532); assay: Anti-fungal microbroth dilution assay; type: cell-based; settings: 1 × 10^5 cells/mL spores in half-strength potato dextrose broth, 25°C, 24 h, crystal violet, absorbance 570 nm, read-out: IC50 against F. oxysporum
Procedure: (§2) Four phyto-pathogenic fungal strains from the China Center of Industrial Culture Collection (Beijing, China) were used to examine the anti-fungal activity of avenatide aV1: Alternaria alternata (CICC 2465), Curvularia lunata (CICC 40301), Fusarium oxysporum (CICC 2532), and Rhizoctonia solani (CICC 40259). Fungal strains were grown on potato dextrose agar plates at 25°C.
(§3) The half maximal inhibitory concentration levels (IC50) of avenatide aV1 were determined using a microbroth dilution assay ([Loo et al., 2021b]). Fungal spores were harvested from a 4-day old, actively growing fungal plate and suspended in half-strength potato dextrose broth. In the 96-well microplate, 1 × 10^5 cells/mL of spore suspension was mixed with peptides at varying concentrations and incubated at 25°C for 24 h. The cells were then fixed with 100% methanol for 15 min. Staining was done for 45 min with crystal violet dye. MilliQ water was used to remove excess dye. Elution was performed using 1:1 (v/v) ethanol/0.1 N HCl. Absorbance was measured at 570 nm.

[4] = test system: Curvularia lunata (CICC 40301); assay: Anti-fungal microbroth dilution assay; type: cell-based; settings: 1 × 10^5 cells/mL spores in half-strength potato dextrose broth, 25°C, 24 h, crystal violet, absorbance 570 nm, read-out: IC50 against C. lunata
Procedure: as §2, §3

CC(C)C[C@@H]1NC(=O)CNC(=O)[C@@H]2CSSC[C@@H]3NC(=O)[C@@H]4CCCN4C(=O)[C@H](CO)NC(=O)[C@H](CO)NC(=O)[C@H](CO)NC(=O)[C@H](CO)NC(=O)[C@@H](NC(=O)[C@H](C)N)CSSC[C@H](NC(=O)[C@H](CSSC[C@@H](C(=O)NCC(=O)N[C@@H](CO)C(=O)NCC(=O)N[C@H]4CSSC[C@@H](C(=O)N[C@H](C(=O)NCC(=O)N[C@@H](C)C(=O)O)[C@@H](C)O)NC(=O)[C@@H]5CCCN5C(=O)CNC(=O)[C@H](CO)NC(=O)[C@H](CCC(N)=O)NC4=O)NC(=O)[C@H](Cc4ccc(O)cc4)NC(=O)[C@H](CC(=O)O)NC(=O)CNC(=O)CNC1=O)NC(=O)[C@H](CCC(N)=O)NC(=O)[C@H](CC(N)=O)NC(=O)CNC(=O)[C@@H]1CCCN1C3=O)C(=O)N[C@@H](CO)C(=O)N[C@@H](CCCCN)C(=O)N[C@@H](Cc1c[nH]c3ccccc13)C(=O)NCC(=O)N[C@@H](Cc1ccc(O)cc1)C(=O)N2 [avenatide aV1] (H-ACSSSSPCPGNQCCSKWGYCGLGGDYCGSGCQSGPCTGA-OH; disulfide 2-14, 8-20, 13-27, 31-36)
Peptide retained after trypsin treatment [1]: > 80% | remaining at 4 h, 200 μM [2]: > 80% | IC50 [3]: 53 µM | IC50 [4]: 74 µM
